Experimental findings from patent US7598242B2 (priority 2001, dated 2009) are described below.

The target in the test is T1, purified catalytic domain of recombinant human TACE (rhTACEc) (Homo sapiens, UniProt P78536, N452Q/S266A).
T1 construct: Residue 215 to 477 with two mutation (S266A and N452Q) and a 6×His tail; 6xHis (C); made in house; host or cells: baculovirus/Hi5 insect cells
T1 sequence (P78536 215-477 S266A/N452Q): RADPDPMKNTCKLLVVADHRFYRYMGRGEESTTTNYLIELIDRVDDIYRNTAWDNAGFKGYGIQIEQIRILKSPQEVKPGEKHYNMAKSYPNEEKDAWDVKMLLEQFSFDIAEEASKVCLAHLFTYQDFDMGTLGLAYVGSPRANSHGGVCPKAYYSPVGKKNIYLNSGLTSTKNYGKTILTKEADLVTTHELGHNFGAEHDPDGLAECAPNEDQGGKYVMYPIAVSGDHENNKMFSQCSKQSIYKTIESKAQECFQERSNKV
Description: biochemical.
As to `Cc1cc(COc2ccc(C[C@]3(C(=O)N4CCC[C@H]4CO)C[C@@H]3C(=O)NO)cc2)c2ccccc2n1` [JG], the Ki is < 20 nM.

On to `COC(=O)[C@@]1(Cc2ccc(OCc3cc(-c4ccncc4)nc4ccccc34)c(F)c2)C[C@@H]1C(=O)NO` [LI], for which the inhibition constant Ki was < 20 nM.

For `Cc1cc(COc2cccc([C@@]3(C(=O)NC4CCCCC4)C[C@H]3C(=O)NO)c2)c2ccccc2n1` [JY], the Ki was < 20 nM.

Regarding `CCc1cc(COc2ccc(C[C@]3(C(=O)N4CC[C@H](N(C)C)C4)C[C@@H]3C(=O)NO)cc2F)c2ccccc2n1` [JT], the Ki was < 20 nM.

As to `CCc1cc(COc2ccc(C[C@]3(C(=O)N4CC[C@H](N(C)C)C4)C[C@@H]3C(=O)NO)cc2)c2ccccc2n1` [JF], the Ki was < 20 nM.

For the molecule `Cc1cc(COc2ccc(C[C@]3(C(N)=O)C[C@@H]3C(=O)NO)cc2Cl)c2ccccc2n1` [FN], the Ki is < 20 nM.

With `CCOC(=O)[C@@]1(Cc2ccc(OCc3ccnc(N4CCOCC4)c3)cc2)C[C@@H]1C(=O)NO` [LH], the Ki was < 20 nM.

`COC(=O)[C@@]1(Cc2ccc(OCc3cc(N4CCCC4)nc4ccccc34)c(F)c2)C[C@@H]1C(=O)NO` [FY]: the Ki was < 20 nM.

`NC(=O)[C@@]1(Cc2ccc(OCc3cc(-c4cccnc4)nc4ccccc34)cc2)C[C@@H]1C(=O)NO` [DA]: the Ki was < 20 nM.

In the case of `CCc1cc(COc2ccc(C[C@]3(C(=O)N4CC[C@@H](N)C4)C[C@@H]3C(=O)NO)cc2F)c2ccccc2n1` [JS], the Ki is < 20 nM.

For the molecule `CN(C)C(=O)[C@@]1(Cc2ccc(OCc3cc(C(F)(F)F)nc4ccccc34)cc2)C[C@@H]1C(=O)NO` [BO], the Ki is < 20 nM.

On to `NC(=O)[C@@]1(Cc2ccc(OCc3cc(C4CC4)nc4ccccc34)c(F)c2)C[C@@H]1C(=O)NO` [CU], for which the Ki is < 20 nM.

Turning to `O=C(NO)[C@H]1C[C@]1(Cc1ccc(OCc2cc(-c3ccccc3)nc3ccccc23)cc1)C(=O)N1CC[C@H](NC(=O)C(F)(F)F)C1` [JE], the Ki is < 20 nM.

For the molecule `CC1CCCN1c1cc(COc2ccc(C[C@]3(C(N)=O)C[C@@H]3C(=O)NO)cc2F)c2ccccc2n1` (some centres unmarked) [FV], the Ki was < 20 nM.

As to `Cc1cc(COc2ccc(C[C@]3(C(=O)N(C)C)C[C@@H]3C(=O)NO)cc2F)c2ccccc2n1` [JO], the Ki was < 20 nM.

For `NC(=O)[C@@]1(Cc2ccc(OCc3cc(-c4ccccc4Cl)nc4ccccc34)c(F)c2)C[C@@H]1C(=O)NO` [CW], the Ki is < 20 nM.

Consider `N[C@@H]1CCN(C(=O)[C@@]2(Cc3ccc(OCc4cc(-c5ccccc5)nc5ccccc45)cc3)C[C@@H]2C(=O)NO)C1` [KZ], for which the Ki is < 20 nM.

Consider `COC(=O)[C@@]1(Cc2ccc(OCc3cc(N4CCOCC4)nc4ccccc34)c(F)c2)C[C@@H]1C(=O)NO` [FZ], for which the Ki was < 20 nM.

As for `Cc1cc(COc2cccc([C@@]3(C(=O)OC(C)C)C[C@H]3C(=O)NO)c2)c2ccccc2n1` [KM], the Ki was < 20 nM.

Turning to `CCc1cc(COc2ccc(C[C@]3(C(=O)N4CC[C@@H](NC(=O)C(F)(F)F)C4)C[C@@H]3C(=O)NO)cc2F)c2ccccc2n1` [JU], the Ki is < 20 nM.

For `CN(C)CCNC(=O)[C@@]1(Cc2ccc(OCc3cc(C(F)(F)F)nc4ccccc34)cc2)C[C@@H]1C(=O)NO` [BP], the inhibition constant Ki is < 20 nM.

As for `CNc1cc(COc2ccc(C[C@]3(C(=O)OC)C[C@@H]3C(=O)NO)cc2F)c2ccccc2n1` [GB], the Ki was < 20 nM.

Consider `Cc1cc(COc2ccc(C[C@]3(C(=O)NCc4ccccc4)C[C@@H]3C(=O)NO)cc2)c2ccccc2n1` [O], for which the Ki is < 20 nM.

For the molecule `Cc1cc(COc2ccc(C[C@]3(C(N)=O)C[C@@H]3C(=O)NO)cc2Br)c2ccccc2n1` [FQ], the Ki was < 20 nM.

In the case of `CCCc1cc(COc2ccc(C[C@]3(C(N)=O)C[C@@H]3C(=O)NO)cc2F)c2ccccc2n1` [CR], the Ki is < 20 nM.

As for `Cc1cc(COc2ccc(C[C@]3(C(=O)NCc4cccnc4)C[C@@H]3C(=O)NO)cc2)c2ccccc2n1` [P], the Ki was < 20 nM.

On to `NC(=O)[C@@]1(Cc2ccc(OCc3cc(-c4ccc(Cl)cc4)nc4ccccc34)c(F)c2)C[C@@H]1C(=O)NO` [CY], for which the Ki is < 20 nM.

`CCc1cc(COc2ccc(C[C@]3(C(N)=O)C[C@@H]3C(=O)NO)cc2F)c2ccccc2n1` [CO]: the Ki was < 20 nM.

With `CN1CCN(c2cc(COc3ccc(C[C@]4(C(N)=O)C[C@@H]4C(=O)NO)cc3F)c3ccccc3n2)CC1` [FX], the Ki is < 20 nM.

Consider `CN(C)C(=O)[C@@]1(Cc2ccc(OCc3cc(-c4ccncc4)nc4ccccc34)c(F)c2)C[C@@H]1C(=O)NO` [CZ], for which the inhibitory constant (Ki) was < 20 nM.

As for `NC(=O)[C@@]1(Cc2ccc(OCc3cc(N4CCCCC4)nc4ccccc34)c(F)c2)C[C@@H]1C(=O)NO` [LM], the Ki is < 20 nM.

For the molecule `CCOC(=O)[C@@]1(Cc2ccc(OCc3cc(-c4cccnc4)nc4ccc(C)cc34)c(F)c2)C[C@@H]1C(=O)NO` [GV], the Ki was < 20 nM.

Regarding `COC(=O)[C@@]1(Cc2ccc(OCc3cc(N4CCN(C)CC4)nc4ccccc34)c(F)c2)C[C@@H]1C(=O)NO` [GA], the Ki is < 20 nM.

For the molecule `O=C1CN(C(=O)[C@@]2(Cc3ccc(OCc4cc(-c5ccccc5)nc5ccccc45)cc3)C[C@@H]2C(=O)NO)CCN1` [BQ], the Ki is < 20 nM.

On to `Cc1cc(COc2ccc(C[C@]3(C#N)C[C@@H]3C(=O)NO)cc2)c2ccccc2n1` [FG], for which the Ki is < 20 nM.

In the case of `CCc1cc(COc2ccc(C[C@]3(C(=O)N4CC[C@H](O)C4)C[C@@H]3C(=O)NO)cc2F)c2ccccc2n1` [JR], the Ki was < 20 nM.

With `CCc1cc(COc2ccc(C[C@]3(C(=O)N4CC[C@H](O)C4)C[C@@H]3C(=O)NO)cc2)c2ccccc2n1` [JC], the Ki is < 20 nM.

As for `Cc1cc(COc2ccc(C[C@]3(C(=O)N(C)C)C[C@@H]3C(=O)NO)cc2)c2ccccc2n1` [BL], the Ki was < 20 nM.

Take `CN(C)c1cc(COc2ccc(C[C@]3(C(N)=O)C[C@@H]3C(=O)NO)cc2F)c2ccccc2n1` [CN]: the Ki was < 20 nM.

As for `CN(C)C1CCN(C(=O)[C@@]2(Cc3ccc(OCc4cc(-c5ccncc5)nc5ccccc45)c(F)c3)C[C@@H]2C(=O)NO)C1` (some centres unmarked) [JV], the inhibition constant Ki is < 20 nM.

Regarding `CN(C)CCN(C)C(=O)[C@@]1(Cc2ccc(OCc3cc(-c4ccccc4)nc4ccccc34)cc2)C[C@@H]1C(=O)NO` [JD], the Ki was < 20 nM.

Take `NC(=O)[C@@]1(Cc2ccc(OCc3cc(-c4ccccn4)nc4ccccc34)c(F)c2)C[C@@H]1C(=O)NO` [CS]: the Ki was < 20 nM.

Consider `Cc1cc(COc2ccc(C[C@]3(C(N)=O)C[C@@H]3C(=O)NO)cc2F)c2ccccc2n1` [CV], for which the Ki is < 20 nM.

On to `CCc1cc(COc2ccc(C[C@]3(C(=O)OC)C[C@@H]3C(=O)NO)cc2F)c2ccccc2n1` [DB], for which the Ki was < 20 nM.

The term Ki denotes the equilibrium dissociation constant of an inhibitor or competing ligand from its target.
